Active and inactive are the calls of the source. How the calls were made is not given here. Bounds are passed on as bounds.

Experimental findings from PubChem BioAssay AID977613 (Broad Institute, 2014) are described below.

In the assay the test system is Broad 7084-01 inhibitor HTS, set 2. The assay is described as follows: single-concentration hits, screen 7084 set 2 (AID 977613).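 Further: host cells are infected with parasite promastigotes that become internalized.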
As for `C/C=C/c1ccc([C@@H]2[C@H](CO)N(CC3CC3)C23CN(C(=O)c2ccc4c(c2)OCO4)C3)cc1`, the active concentration was > 10 µM (inactive).
For the compound `O=C(NCC1CCCCC1)[C@@H]1[C@@H](CO)[C@@H]2Cn3c(ccc(-c4cncnc4)c3=O)[C@H]1N2`, the active concentration was > 10 µM (inactive).
With `O=C(C[C@@H]1CC[C@@H]2[C@H](COC[C@@H](O)CN2C(=O)Cc2ccccc2)O1)NC1CCCC1`, the active concentration was > 10 µM (inactive).
With `O=C(C[C@@H]1CC[C@H]2[C@@H](COC[C@@H](O)CN2C(=O)c2ccc3c(c2)OCO3)O1)NC1CCC1` the figure was > 10 µM (inactive).
As to `CC1C=NC(S(=O)(=O)N2CC[C@H]3[C@@H](CO)N(C)c4ccc(-c5ccccc5F)cc4[C@H]32)=N1` (stereo not given in full), the active concentration is > 10 µM (inactive).
With `COc1ccc2c3c([nH]c2c1)[C@H](CO)N(C(=O)Nc1ccc(F)cc1)CC31CCN(CC2CCOCC2)CC1` the figure was > 10 µM (inactive); with `COc1ccccc1C(=O)N1C[C@H]2[C@@H](c3ccccc31)[C@@H](CO)N2C(=O)Cc1cccnc1`, > 10 µM (inactive); with `C/C=C/c1ccccc1[C@H]1[C@@H](CO)N(C(=O)Nc2cccc(F)c2)[C@H]1C#N`, > 10 µM (inactive).
With `CCc1csc(N2[C@H](C#N)[C@H](c3ccccc3-c3ccc(F)cc3)[C@H]2CO)n1` the figure was > 10 µM (inactive); with `Cc1ccccc1S(=O)(=O)N1CCCCN2[C@H](C1)[C@H](c1ccc(C#CCN(C)C)cc1)[C@@H]2CO`, > 10 µM (inactive).
With `COc1ccc2c3c([nH]c2c1)[C@@H](CO)N(S(=O)(=O)c1ccc(C)cc1)CC31CCN(C(=O)Cc2cccnc2)CC1` the figure was > 10 µM (inactive); with `CCNC(=O)C[C@H]1CC[C@@H]2[C@H](COC[C@H](O)CN2C(=O)C2CC2)O1`, > 10 µM (inactive).
Turning to `CCCNC(=O)N1[C@H](CO)[C@H](c2ccccc2-c2ccc(C)cc2)[C@@H]1C#N`, the active concentration was > 10 µM (inactive).
Turning to `O=C(c1cccc(F)c1)N1C[C@@H]2[C@H](c3ccccc31)[C@H](CO)N2C(=O)C1CCOCC1`, the active concentration is > 10 µM (inactive).
As to `O=C(O)[C@H]1[C@H](CO)[C@H]2Cn3c(ccc(C4=CCCCC4)c3=O)[C@@H]1N2C(=O)Cc1ccccn1`, the active concentration was > 10 µM (inactive).
Turning to `COc1ccc(C#Cc2ccc([C@H]3[C@H]4CN(C(=O)c5ccc(F)cc5)CC(=O)N4[C@H]3CO)cc2)cc1`, the active concentration is > 10 µM (inactive).
In the case of `CC(C)NC(=O)N1[C@H](CO)[C@@H](c2ccccc2-c2ccc(F)cc2)[C@@H]1C#N` it was > 10 µM (inactive).
Regarding `CN(C)CC(=O)N1CC2(C1)[C@H](c1ccccc1)[C@@H](CO)N2S(C)(=O)=O`, the active concentration was > 10 µM (inactive).
Take `COc1cccc(S(=O)(=O)N2CCCCN3[C@@H](CO)[C@@H](c4ccc(C#CCC(C)C)cc4)[C@@H]3C2)c1`: the active concentration was > 10 µM (inactive).
As to `C/C=C/c1ccccc1[C@H]1[C@@H](CO)N(C(=O)NC2CCCCC2)[C@H]1C#N`, the active concentration was > 10 µM (inactive).
Take `CN(C)CC(=O)N1[C@@H](CO)[C@@H](c2ccccc2)C12CN(Cc1cc(F)ccc1F)C2`: the active concentration is > 10 µM (inactive).
For `O=C(c1ccc2c(c1)OCO2)N1C[C@H]2[C@@H](c3ccccc31)[C@@H](CO)N2C(=O)CC1CC1`, the active concentration was > 10 µM (inactive).
As to `COc1ccccc1CN1[C@H](CO)[C@H]2c3ccccc3N(C(=O)C3CCCCC3)C[C@H]21`, the active concentration is > 10 µM (inactive).
With `O=C(C[C@H]1CC[C@@H]2[C@H](COC[C@H](O)CN2Cc2cccc(F)c2)O1)NCc1cccc(F)c1`, the active concentration was > 10 µM (inactive).
In the case of `Cc1ccccc1S(=O)(=O)N1CCCCN2[C@H](CO)[C@@H](c3ccc(C#CCN(C)C)cc3)[C@H]2C1` it was > 10 µM (inactive).
For `COc1ccc(C#Cc2ccc3c(c2)[C@H]2[C@H](CCN2C(=O)Nc2ccc(C(F)(F)F)cc2)[C@@H](CO)N3C)cc1`, the active concentration was > 10 µM (inactive).
For the compound `CC(C)NC(=O)N1[C@H](CO)[C@H](c2ccccc2)C12CN(C(=O)Cc1cccnc1)C2`, the active concentration is > 10 µM (inactive).
As for `O=C(Cc1ccncc1)N1CC(=O)N2[C@H](CO)[C@H](c3ccc(Br)cc3)[C@@H]2C1`, the active concentration was > 10 µM (inactive).
Turning to `C[C@H](NC(=O)[C@H]1[C@H](CO)[C@H]2Cn3c(ccc(/C=C/c4ccccc4)c3=O)[C@@H]1N2)c1ccccc1`, the active concentration is > 10 µM (inactive).
In the case of `CC(C)NC(=O)N1CC[C@@H]2[C@H]1c1cc(Br)ccc1N(C)[C@H]2CO` it was > 10 µM (inactive); in that of `O=C(C[C@@H]1CC[C@H]2[C@@H](COC[C@H](O)CN2Cc2nccs2)O1)NCc1ccccc1`, > 10 µM (inactive); in that of `C/C=C/c1ccc([C@H]2[C@H]3CN(S(=O)(=O)c4ccc(OC)cc4)CCCCN3[C@H]2CO)cc1`, > 10 µM (inactive).
As to `COC(=O)[C@H]1[C@H](CO)[C@H]2Cn3c(ccc(-c4ccccc4OC)c3=O)[C@H]2N1C(=O)c1cnccn1`, the active concentration is > 10 µM (inactive).
On to `CC(C)NC(=O)N1C[C@@H]2[C@H](c3ccccc31)[C@@H](CO)N2Cc1ccccn1`, for which the active concentration was less than 10 µM.
In the case of `COc1cccc(C(=O)Nc2ccc3c(c2)C(=O)N(C)[C@@H]2CC[C@H](CC(=O)NCCCN4CCOCC4)O[C@H]2CO3)c1` it was > 10 µM (inactive); in that of `COc1cccc(C(=O)N2C[C@@H]3[C@H](c4ccccc42)[C@H](CO)N3Cc2ccccc2Cl)c1`, > 10 µM (inactive).
For `O=S(=O)(c1ccc(F)cc1)N1C[C@H]2[C@@H](c3ccccc31)[C@H](CO)N2Cc1ccc2c(c1)OCO2`, the active concentration is > 10 µM (inactive).
For `O=S(=O)(c1ccc(F)cc1)N1C[C@@H]2[C@H](c3ccccc31)[C@H](CO)N2Cc1ccc2c(c1)OCO2`, the active concentration is > 10 µM (inactive).
On to `Cc1ccccc1S(=O)(=O)N1CC[C@@H]2[C@@H](CO)N(C)c3ccc(-c4cccc(C#N)c4)cc3[C@@H]21`, for which the active concentration was > 10 µM (inactive).
Regarding `C/C=C/c1ccc([C@@H]2[C@@H](CO)N3C(=O)CN(C(=O)c4ccncc4)C[C@@H]23)cc1`, the active concentration was > 10 µM (inactive).
In the case of `CN1C[C@H]2[C@@H](c3ccccc31)[C@@H](CO)N2C(=O)Nc1cccc(F)c1` it was > 10 µM (inactive).
`COc1ccccc1CN1[C@H](CO)[C@@H]2c3ccccc3N(C(=O)c3cccnc3)C[C@@H]21`: the active concentration is > 10 µM (inactive).
As to `CCS(=O)(=O)N1CC2(CN(Cc3cc(F)ccc3F)[C@H](CO)c3c2c2ccc(OC)cc2n3C)C1`, the active concentration was > 10 µM (inactive).
As for `Cc1noc(C)c1NC(=O)N1C[C@H](O)COC[C@H]2O[C@H](CC(=O)NCC3CCCCC3)CC[C@@H]21`, the active concentration was > 10 µM (inactive).
On to `CN1C[C@H](O)COC[C@H]2O[C@H](CC(=O)NC3CCCC3)CC[C@@H]21`, for which the active concentration was > 10 µM (inactive).
For the compound `CN(C)CC(=O)N1CCCCN2[C@H](C1)[C@@H](c1ccc(/C=C/c3ccccc3)cc1)[C@@H]2CO`, the active concentration was > 10 µM (inactive).
For the compound `COc1ccc(NC(=O)N2CCCCN3[C@H](C2)[C@@H](c2ccc(-c4ccccc4F)cc2)[C@@H]3CO)cc1`, the active concentration was > 10 µM (inactive).
As for `CC(C)C#Cc1ccc([C@@H]2[C@@H](CO)N3C(=O)CN(C(=O)c4ccc5c(c4)OCO5)C[C@H]23)cc1`, the active concentration is > 10 µM (inactive).
On to `CCCNC(=O)N1[C@@H]2CN(C(=O)c3cccnc3)c3ccccc3[C@@H]2[C@@H]1CO`, for which the active concentration is > 10 µM (inactive).
Consider `O=C(C[C@@H]1CC[C@@H]2[C@H](COC[C@H](O)CN2Cc2cc(F)cc(F)c2)O1)NC1CCC1`, for which the active concentration was > 10 µM (inactive).
Take `COC(=O)c1ccc(CN2CC(=O)N3[C@@H](CO)[C@H](c4ccc(-c5cccnc5)cc4)[C@@H]3C2)cc1`: the active concentration was > 10 µM (inactive).
Regarding `O=C1CN(S(=O)(=O)Cc2ccccc2)C[C@@H]2[C@H](c3ccc(C#Cc4ccccc4)cc3)[C@@H](CO)N12`, the active concentration is > 10 µM (inactive).
As for `CN(C)C(=O)C[C@@H]1CC[C@H]2[C@@H](COC[C@@H](O)CN2CC2CCCC2)O1`, the active concentration is > 10 µM (inactive).
As for `CCCC#Cc1ccc([C@@H]2[C@H]3CN(C(=O)c4cccnc4)CC(=O)N3[C@H]2CO)cc1`, the active concentration is > 10 µM (inactive).
In the case of `Cc1ccccc1-c1ccc([C@H]2[C@H](CO)N3C(=O)CN(C(=O)Nc4cccc(F)c4)C[C@@H]23)cc1` it was > 10 µM (inactive); in that of `O=C(c1cnccn1)N1CC[C@@H]2[C@H]1c1cc(-c3ccccc3F)ccc1N[C@@H]2CO`, > 10 µM (inactive); in that of `O=C(C[C@@H]1CC[C@H]2[C@@H](COC[C@@H](O)CN2C(=O)Nc2cc(Cl)cc(Cl)c2)O1)NCC1CCCCC1`, > 10 µM (inactive).
Consider `Cn1cnc(S(=O)(=O)N2C[C@H](O)COC[C@H]3O[C@@H](CC(=O)NC4CCCC4)CC[C@@H]32)c1`, for which the active concentration was > 10 µM (inactive).
With `COc1cccc(NC(=O)N2C[C@@H](O)COC[C@H]3O[C@H](CC(=O)NC4CCC4)CC[C@@H]32)c1` the figure was > 10 µM (inactive); with `O=C(NC1CCCC1)N1CCCCN2[C@H](CO)[C@@H](c3ccc(-c4cccnc4)cc3)[C@@H]2C1`, > 10 µM (inactive); with `CCCNC(=O)N1CC(=O)N2[C@H](CO)[C@H](c3ccc(-c4ccc(F)cc4)cc3)[C@H]2C1`, > 10 µM (inactive).
Regarding `O=C(C[C@@H]1CC[C@@H]2[C@H](COC[C@@H](O)CN2Cc2nccs2)O1)NCc1ccccc1`, the active concentration is > 10 µM (inactive).
As to `CCN1CC(=O)N2[C@H](CO)[C@@H](c3ccc(Br)cc3)[C@@H]2C1`, the active concentration was > 10 µM (inactive).
For the compound `N#C[C@@H]1[C@H](c2ccccc2C2=CCCCC2)[C@H](CO)N1C(=O)c1cccc(F)c1`, the active concentration was > 10 µM (inactive).
As for `O=C(Nc1cccc(Cl)c1)N1C[C@@H]2[C@H](c3ccccc31)[C@H](CO)N2CC1CCOCC1`, the active concentration is > 10 µM (inactive).
